This is an account of results in patent publication US10449186B2, “Phenylethynyl-substituted benzenes and heterocycles for the treatment of cancer” (UNIVERSITY OF KENTUCKY RESEARCH FOUNDATION, priority 2017, dated 2019).

The subject of data set [1] is LS174T colon cancer cells. As to the kind of experiment: LS174T cell proliferation assay. The format is cell-based. Also noted: effects on LS174T colon cancer cell proliferation (Table 3): unit not given here. The conditions noted are these: for inhibition at 0.1 µM / inhibition at 1 µM / inhibition at 10 µM: Homo sapiens, LS174T. The method, then: Cell proliferation assay. LS174T cells were grown in RPMI medium (Mediatech) supplemented with 5% fetal bovine serum and 1% penicillin/streptomycin. For cell proliferation assays, 3×10^4 cells/well growing in 12-well plates were treated with DMSO or inhibitors. The cell numbers and viability were analyzed by Vi-Cell Cell Viability Analyzer after 4 days. The IC50 values were calculated with GraphPad Prim 5.

Where [2] appears, read: Table 2, 100 nM, read-out: inhibition of cell proliferation (%) of colon cancer LS174T cells.
Where [3] appears, read: Table 2, 1 μM, read-out: inhibition of cell proliferation (%) of colon cancer LS174T cells.
The mark [4] stands for this setting: Table 2, 10 μM, read-out: inhibition of cell proliferation (%) of colon cancer LS174T cells.
Where [5] appears, read: read-out: inhibition of cell proliferation (%) of colon cancer LS174T cells.

SMILES strings stand for the structures. Where a name gives a salt, the structure may show the parent alone. Read-outs that look alike come from different tables or passages of the source. Some results are limits rather than exact numbers.

In turn, `CN(C)c1ccc(C#Cc2c(F)cccc2F)nc1` [Compound 5a, 6-((2,6-Difluorophenyl)ethynyl)-N,N-dimethylpyridin-3-amine] gave a melting point of 120 to 122 °C. Further, in data set [1] (setting [2]), the inhibition at 0.1 µM was determined as 15.1 ± 7.4%. The inhibition at 1 µM in data set [1] (setting [3]) is 68.9 ± 1.3%. Also, the inhibition at 10 µM in data set [1] (setting [4]) came to 85.2 ± 3.8%.
Take `CN(C)c1ccc(C#Cc2c(F)cncc2F)cc1` [Compound 7d, 4-((3,5-Difluoropyridin-4-yl)ethynyl)-N,N-dimethylaniline]: the “effects on LS174T colon cancer cell proliferation (Table 3)” value is recorded as 16.7 in data set [1] (30 nM), 20.4 in data set [1] (100 nM) and 60.6 in data set [1] (300 nM).
With `Fc1cccc(F)c1C#Cc1ccc2ccccc2n1` [Compound 5m, 2-((2,6-Difluorophenyl)ethynyl)quinoline], the melting point lay in the range of 127 to 129 °C. In addition, in data set [1] (setting [5]), the inhibition at 0.1 µM came to 6.1 ± 27%, the inhibition at 1 µM came to 67.3 ± 13.6% and the inhibition at 10 µM is 93.8 ± 1.7%.
On to `Fc1cccc(F)c1C#Cc1ccc2ncccc2c1` [Compound 5w, 6-((2,6-Difluorophenyl)ethynyl)quinoline], for which the melting point was in the range of 91 to 93 °C. Further, in data set [1] (setting [5]), the inhibition at 1 µM came to 11 ± 30.4% and the inhibition at 10 µM is 80.1 ± 1%.
The corresponding values for `Fc1cccc(F)c1C#Cc1cc2ccccc2nc1Cl` [Compound 5p, 2-Chloro-3-((2,6-difluorophenyl)ethynyl)quinoline] are 137 to 138 °C, 28.4 ± 10.5% and 85.1 ± 6.2%.
`Fc1cccc(F)c1C#Cc1cnc2c(F)cccc2c1` [Compound 5t, 3-((2,6-Difluorophenyl)ethynyl)-8-fluoroquinoline] gave a melting point of 136 to 137 °C. In data set [1] (setting [5]), the inhibition at 0.1 µM turned out to be 8.8 ± 5.1%, the inhibition at 1 µM worked out at 63.6 ± 8.4% and the inhibition at 10 µM amounted to 89.1 ± 8.2%.
In turn, `CN(C)c1cnc(C#Cc2c(F)cccc2F)cn1` [Compound 5d, 5-((2,6-Difluorophenyl)ethynyl)-N,N-dimethylpyrazin-2-amine] registered a melting point of 137 to 138 °C. Further, the inhibition at 1 µM in data set [1] (setting [3]) amounted to 22.9 ± 9.8%. In data set [1] (setting [4]), the inhibition at 10 µM worked out at 91.6 ± 3%.
`Fc1cccc(F)c1C#Cc1cccc2[nH]ncc12` [Compound 5g, 4-((2,6-Difluorophenyl)ethynyl)-1H-indazole] yielded a melting point of 178 to 179 °C. For the same molecule, in data set [1] (setting [5]), the inhibition at 1 µM came out at 19.8 ± 13.6% and the inhibition at 10 µM stood at 96.2 ± 2%.
In the case of `Fc1cccc(F)c1C#Cc1ccc2nccc(Cl)c2c1` [Compound 5aa, 4-Chloro-6-((2,6-difluorophenyl)ethynyl)quinoline], the melting point lay within 120 to 122 °C. In data set [1] (setting [3]), the inhibition at 1 µM was 43.8 ± 10.8%. In data set [1] (setting [4]), the inhibition at 10 µM is 89.7 ± 4.3%.
In the case of `CN1CCN(c2ncc(C#Cc3c(F)cccc3F)c3ccccc23)CC1` (as salt: hydrochloride) [Compound 5pp, 4-((2,6-Difluorophenyl)ethynyl)-1-(4-methylpiperazin-1-yl)isoquinoline], the melting point lay in the range of 70 to 72 °C.
On to `Fc1cccc(F)c1C#Cc1cnc2[nH]ccc2c1` [Compound 5l, 5-((2,6-Difluorephenyl)ethynyl)-1H-pyrrolo[2,3-b]pyridine], for which the “inhibition of cell proliferation (%) of colon cancer LS174T cells” value in data set [1] (Table 2, 1 μM) was found to be 17.3 ± 12.0%; in data set [1] (Table 2, 10 μM), 77.9 ± 8.9%.
`Nc1ccc2ncc(C#Cc3c(F)cccc3F)cc2c1` [Compound 5r, 3-((2,6-Ditfluorophenyl)ethynyl)quinolin-6-amine]: the “inhibition of cell proliferation (%) of colon cancer LS174T cells” value in data set [1] (Table 2, 10 μM) was found to be 9.2 ± 15.7%.
Regarding `Cn1ccc2cc(C#Cc3c(F)cccc3F)ccc21` [Compound 5f, 5-((2,6-Difluorophenyl)ethynyl)-1-methyl-1H-indole], the inhibition at 1 µM in data set [1] (1 μM, read-out: inhibition of LS174T colon cancer cell proliferation) was greater than 75%; in data set [1] (setting [3]), 77.7 ± 13.6%. For the same molecule, in data set [1] (setting [2]), the inhibition at 0.1 µM stood at 3 ± 5.6%. Moreover, the inhibition at 10 µM in data set [1] (setting [4]) turned out to be 95.2 ± 1%.
